Experimental data from patent US8871799B2, “Iminochromene anti-viral compounds” (priority 2010, dated 2014).

Assays:
HCV2a virus = assay: HCV IF antiviral assay (HCV inhibition assay); type: cell-based, Hepatitis C virus; settings: for Number HCV infected cells: Huh7 cells, 80 infected cells at 0 μM
HCV = HCV RNA release by Huh7 cells; type: cell-based, Hepatitis C virus; settings: control level 100% in the absence of drug
[1] = system: Murine Encephalomyocarditis virus (EMCV); assay: EMCV antiviral assay (MTS cell viability); settings: Huh7 cells, 250 pfu EMCV, negative controls ~0.7-0.75

| Compound | Change in number of HCV-infected cells with increasing concentration (HCV2a virus; 0, 5 μM, 10 μM and 50 μM) | Number HCV infected cells (HCV2a virus; KIN700 added 5 μM) | Number HCV infected cells (HCV2a virus; KIN700 added 10 μM) | Number HCV infected cells (HCV2a virus; KIN700 added 50 μM) | Level of HCV RNA in supernatant (HCV; KIN700 at 10 μM) | Cell viability post-infection ([1]; 5 μM) | Cell viability post-infection ([1]; 10 μM) | Cell viability post-infection ([1]; 20 μM) | HCV infection with positive control treatment (HCV2a virus; positive control, representative experiments) | Level of HCV RNA in supernatant (HCV; Interferon sample) |
| --- | --- | --- | --- | --- | --- | --- | --- | --- | --- | --- |
| COc1ccc(/N=c2\oc3ccc(Cl)cc3cc2C(N)=S)cc1 [KIN700] | dose-dependent decrease | 25 | 13 | 13 | less than 10% | ~0.8 | ~1.5 | ~1.7 |  |  |
| interferon [reference compound] |  |  |  |  |  |  |  |  | completely blocks HCV infection | less than 5% |
